Measurements published in article PMC6100729, “Penicillium citrinum UFV1 β-glucosidases: purification, characterization, and application for biomass saccharification” (Biotechnology for Biofuels, 2018).
Like-named read-outs stand apart in the source and are kept apart here. Blank lines part the entries; values can stand above or below the compound they belong to.

Assays:
Type in all cases: biochemical, Penicillium citrinum
PcβGlu2 [1] = system: T1, PcβGlu2; test: glucose release, glucose oxidase method at […] nm; details: 50 mM sodium acetate pH 5.0, 40 °C
T1 construct: 93 kDa SDS-PAGE, 89 kDa gel filtration (abstract 95 kDa), monomer; GH3 only tentative (MS on heterogeneous fraction)

PcβGlu1 [2] = system: T2, PcβGlu1; test: glucose release, glucose oxidase method at […] nm; details: 50 mM sodium acetate pH 5.0, 40 °C
T2 construct: native secreted enzyme purified from wheat-bran culture supernatant (ammonium sulfate, phenyl sepharose); 134 kDa SDS-PAGE, 258 kDa gel filtration (abstract 241 kDa), homodimer

PcβGlu2 [3] = system: T1, PcβGlu2; test: 4-methylumbelliferone fluorescence; details: 50 mM sodium acetate pH 5.0, 40 °C; substrate-inhibition model
Description: 4-methylumbelliferone fluorescence on PcβGlu2

PcβGlu1 [4] = system: T2, PcβGlu1; test: 4-methylumbelliferone fluorescence; details: 50 mM sodium acetate pH 5.0, 40 °C
Description: 4-methylumbelliferone fluorescence on PcβGlu1

PcβGlu2 [5] = target: T1, PcβGlu2; test: pNPβGlu hydrolysis, p-nitrophenol release at […] nm; details: substrate pNPβGlu, 50 mM sodium acetate pH 5.0, 40 °C
PcβGlu1 [6] = target: T2, PcβGlu1; test: pNPβGlu hydrolysis, p-nitrophenol release at […] nm; details: substrate pNPβGlu, 50 mM sodium acetate pH 5.0, 40 °C
PcβGlu2 [7] = system: T1, PcβGlu2; test: p-nitrophenol release at […] nm; details: 50 mM sodium acetate pH 5.0, 40 °C; substrate-inhibition model
PcβGlu1 [8] = system: T2, PcβGlu1; test: p-nitrophenol release at […] nm; details: 50 mM sodium acetate pH 5.0, 40 °C
[9] = mixed-type noncompetitive, free-enzyme constant, read-out: KIE

SMILES: OC[C@H]1O[C@@H](O[C@H]2[C@H](O)[C@@H](O)[C@H](O[C@H]3[C@H](O)[C@@H](O)[C@H](O[C@H]4[C@H](O)[C@@H](O)[C@H](O[C@H]5[C@H](O)[C@@H](O)C(O)O[C@@H]5CO)O[C@@H]4CO)O[C@@H]3CO)O[C@@H]2CO)[C@H](O)[C@@H](O)[C@@H]1O (some centres unmarked) [Cellopentaose]
- Km (PcβGlu2 [1]; substrate-inhibition model): 70 ± 10 µM
- Km (PcβGlu1 [2]): 250 ± 20 µM

SMILES: OC[C@H]1O[C@@H](O[C@H]2[C@H](O)[C@@H](O)[C@H](O[C@H]3[C@H](O)[C@@H](O)[C@H](O[C@H]4[C@H](O)[C@@H](O)C(O)O[C@@H]4CO)O[C@@H]3CO)O[C@@H]2CO)[C@H](O)[C@@H](O)[C@@H]1O (some centres unmarked) [Cellotetraose]
- Km (PcβGlu2 [1]; substrate-inhibition model): 280 ± 70 µM
- Km (PcβGlu1 [2]): 420 ± 50 µM

SMILES: OC[C@H]1O[C@@H](OC[C@H]2OC(O)[C@H](O)[C@@H](O)[C@@H]2O)[C@H](O)[C@@H](O)[C@@H]1O (some centres unmarked) [Gentiobiose]
- Km (PcβGlu2 [1]; Michaelis-Menten): 620 ± 70 µM
- Km (PcβGlu1 [2]): 380 ± 40 µM

SMILES: OC[C@H]1O[C@@H](O[C@H]2[C@H](O)[C@@H](CO)OC(O)[C@@H]2O)[C@H](O)[C@@H](O)[C@@H]1O (some centres unmarked) [Laminaribiose]
- Km (PcβGlu2 [1]; substrate-inhibition model): 420 ± 30 µM
- Km (PcβGlu1 [2]): 330 ± 40 µM

SMILES: Cc1cc(=O)oc2cc(O[C@@H]3O[C@H](CO)[C@@H](O)[C@H](O)[C@H]3O)ccc12 [MUβGlu]
- Km (PcβGlu2 [3]): 14 ± 2 µM
- Km (PcβGlu1 [4]): 240 ± 10 µM

SMILES: CCCCCCCCO[C@@H]1O[C@H](CO)[C@@H](O)[C@H](O)[C@H]1O [Octyl-β-glucopyranoside]
- Km (PcβGlu2 [1]; substrate-inhibition model): 190 ± 30 µM
- Km (PcβGlu1 [2]): 540 ± 30 µM

Results, then the compound that gave them:

- Ki (PcβGlu2 [5]; [9]): 3740 ± 70 µM
- Km (PcβGlu2 [1]; Michaelis-Menten): 640 ± 60 µM
- Km (PcβGlu1 [2]): 1700 ± 100 µM
- Ki (PcβGlu1 [6]; [9]): 10700 ± 100 µM
SMILES: OC[C@H]1O[C@@H](O[C@H]2[C@H](O)[C@@H](O)C(O)O[C@@H]2CO)[C@H](O)[C@@H](O)[C@@H]1O (some centres unmarked) [cellobiose]

- Ki (PcβGlu2 [5]; competitive, read-out: Ki): 880 ± 80 µM
- Ki (PcβGlu1 [6]; competitive, read-out: Ki): 1890 ± 80 µM
SMILES: OC[C@H]1OC(O)[C@H](O)[C@@H](O)[C@@H]1O (some centres unmarked) [glucose]

- Km (PcβGlu2 [7]): 72 ± 7 µM
- Km (PcβGlu1 [8]): 280 ± 10 µM
SMILES: O=[N+]([O-])c1ccc(O[C@@H]2O[C@H](CO)[C@@H](O)[C@H](O)[C@H]2O)cc1 [pNPβGlu]
